From ChEMBL document CHEMBL1155321, “Dopamine D3 receptor antagonists: the quest for a potentially selective PET ligand. Part 3: Radiosynthesis and in vivo studies” (Bioorg Med Chem Lett, 2009)

How the values were obtained:
[1] = Intrinsic clearance in rat liver microsomes; assay type: ADME, Microsome
[2] = Intrinsic clearance in human liver microsomes; assay type: ADME, Microsome

## O=C1N(CCN2Cc3ccccc3C2)CCN1c1cccc(Cl)c1
[1]
  CLint scaled: 36.9 mL/min/kg
[2]
  CLint scaled: 8.9 mL/min/kg
